In patent US20120301457A1 (priority 2010, published 2012):

The compounds below were run against recombinant mouse PrP (Mus musculus, UniProt P04925).
Assay type: biochemical

Compound | ability to facilitate amplification and propagation of PrP^Sc
CCCCCCCC/C=C\CCCCCCCC(=O)O[C@H](COC(=O)CCCCCCCCCCCCCCC)COP(=O)(O)OCCN [16:0-18:1 PE, 1-palmitoyl-2-oleoyl-sn-glycero-3-phosphoethanolamine] | successfully facilitated propagation
phosphatidylinositol | facilitate prion amplification to a lesser extent
CCCCCCCC/C=C\CCCCCCCC(=O)O[C@H](CO/C=C\CCCCCCCCCCCCCCCC)COP(=O)(O)OCCN [C18(Plasm)-18:1 PE, 1-(1Z-octadecenyl)-2-oleoyl-sn-glycero-3-phosphoethanolamine] | successfully facilitated propagation
phosphatidylcholine | facilitate prion amplification to a lesser extent
sulfatides | facilitate prion amplification to a lesser extent
CCCCCCCCCCCCCCCC(=O)OC[C@H](COP(=O)(O)OCCN)OC(=O)CCCCCCCCCCCNc1ccc([N+](=O)[O-])c2nonc12 [16:0-12:0 NBD PE, 1-palmitoyl-2-{12-[(7-nitro-2-1,3-benzoxadiazol-4-yl)amino]lauroyl}-sn-glycero-3-phosphoethanolamine] | successfully facilitated propagation
phosphatidic acid | facilitate prion amplification to a lesser extent
CCCCC/C=C\C/C=C\C/C=C\C/C=C\CCCC(=O)O[C@H](CO/C=C\CCCCCCCCCCCCCCCC)COP(=O)(O)OCCN [C18(Plasm)-20:4 PE, 1-(1Z-octadecenyl)-2-arachidonoyl-sn-glycero-3-phosphoethanolamine] | successfully facilitated propagation
phosphatidylserine | facilitate prion amplification to a lesser extent
phosphatidylglycerol | facilitate prion amplification to a lesser extent
cerebrosides | facilitate prion amplification to a lesser extent
